Test results published in patent US10149474B2, “Herbicidal compositions comprising isoxaflutole and diflufenican” (BAYER CROPSCIENCE AKTIENGESELLSCHAFT, priority 2015, dated 2018).

How the values were obtained:
Assay in all cases: Greenhouse trial, herbicidal activity against weed plants pre-emergence
Details in all cases: 3 weeks
[1] = tested on: AMAPA USA12001; assay type: in vivo, Amaranthus palmeri
Excerpt: (§1) Test Conditions in the Greenhouse Trial, Herbicidal Activity Against Weed Plants Pre-Emergence
(§2) Seeds of monocotyledonous and dicotyledonous weed plants and crop plants are shown in sandy loam soil in wood fibre pots, and covered with soil. The compounds of the invention, formulated in the form of wettable powders (WP) or emulsifiable concentrates (EC), are then applied to the surface of the covering earth, in the form of an aqueous suspension or emulsion, with a water application rate when converted of 600 to 800 I/ha with addition of 0.2% of wetting agent. Following the treatment, the pots are placed in a greenhouse and maintained under good growth conditions for the test plants. Visual scoring of the damage to the trial plants takes place after a trial time of 3 weeks in comparison to untreated controls (herbicidal activity in percent (%): 100% activity=plants have died; 0% activity=as control plants). The results are set out in the tables which follow.
AMAPA (USA12001) Amaranthus palmeri (against HPPD-resistant species)
(§3) E^C=Expected value according to Colby (E^C=A+B−A×B/100)
(§4) Δ=Difference (%) between measured value and expected value (%) (measured value minus expected value)
(§5) • measured value E is greater than E^C:→synergism (+Δ) • measured value E is equal to E^C:→additive effect • measured value E is smaller than E^C:→antagonism (−Δ)

[2] = tested on: EPHHL; assay type: in vivo, Euphorbia heterophylla
Excerpt: as §1, §2
EPHHL Euphorbia heterophylla
as §3, §4, §5

[3] = tested on: PHBPU; assay type: in vivo, Pharbitis purpureum
Excerpt: as §1, §2
PHBPU Pharbitis purpureum
as §3, §4, §5

[4] = tested on: POAAN; assay type: in vivo, Poa annua
Excerpt: as §1, §2, §3, §4, §5

[5] = tested on: POLCO; assay type: in vivo, Polygonum convolvulus
Excerpt: as §1, §2
POLCO Polygonum convolvulus
as §3, §4, §5

[6] = tested on: AMATA; assay type: in vivo, Amaranthus tamariscinus
Excerpt: as §1, §2
AMATA Amaranthus tamariscinus
as §3, §4, §5

[7] = tested on: ECHCG; assay type: in vivo, Echinochloa crus galli
Excerpt: as §1, §2
ECHCG Echinochloa crus galli
as §3, §4, §5

O=C(Nc1ccc(F)cc1F)c1cccnc1Oc1cccc(C(F)(F)F)c1 [DFF, diflufenican]
Activity [%] against AMAPA USA12001 ([1]; rate 9.375 g/ha): 20% | Activity [%] against AMAPA USA12001 ([1]; rate 18.75 g/ha): 35% | Activity [%] against AMAPA USA12001 ([1]; rate 37.5 g/ha): 45% | Activity [%] against AMAPA USA12001 ([1]; rate 75 g/ha): 70% | Activity [%] against EPHHL ([2]; rate 37.5 g/ha): 30% | Activity [%] against PHBPU ([3]; rate 9.375 g/ha): 0% | Activity [%] against PHBPU ([3]; rate 18.75 g/ha): 3% | Activity [%] against PHBPU ([3]; rate 37.5 g/ha): 25% | Activity [%] against PHBPU ([3]; rate 75 g/ha): 70% | Activity [%] against POAAN ([4]; rate 9.375 g/ha): 3% | Activity [%] against POAAN ([4]; rate 18.75 g/ha): 88% | Activity [%] against POLCO ([5]; rate 37.5 g/ha): 55% | Activity [%] against AMATA ([6]; rate 9.375 g/ha): 83% | Activity [%] against ECHCG ([7]; rate 9.375 g/ha): 5% | Activity [%] against ECHCG ([7]; rate 18.75 g/ha): 5%

CS(=O)(=O)c1cc(C(F)(F)F)ccc1C(=O)c1cnoc1C1CC1 [IFT, isoxaflutole]
Activity [%] against AMAPA USA12001 ([1]; rate 6 g/ha): 0% | Activity [%] against AMAPA USA12001 ([1]; rate 13 g/ha): 15% | Activity [%] against AMAPA USA12001 ([1]; rate 25 g/ha): 55% | Activity [%] against EPHHL ([2]; rate 6 g/ha): 70% | Activity [%] against PHBPU ([3]; rate 6 g/ha): 20% | Activity [%] against POAAN ([4]; rate 6 g/ha): 0% | Activity [%] against POAAN ([4]; rate 25 g/ha): 0% | Activity [%] against POLCO ([5]; rate 3 g/ha): 0% | Activity [%] against POLCO ([5]; rate 13 g/ha): 35% | Activity [%] against AMATA ([6]; rate 3 g/ha): 10% | Activity [%] against ECHCG ([7]; rate 3 g/ha): 73%
